Where a name gives a salt, the structure may show the parent alone. Read-outs that look alike come from different tables or passages of the source.
How the values were obtained:
[1] = biological target: T1, SARS-CoV-2 PLpro (nsp3 1564–1878) (Severe acute respiratory syndrome coronavirus 2, UniProt P0DTD1); assay: biochemical; set-up: FRET-quenched peptide (Pro3) cleavage by PLpro, 10 min pre-incubation, slope over 20 min, normalised to no-compound control; conditions: low concentration screen, read-out: % of control remaining
[2] = biological target: T1, SARS-CoV-2 PLpro (nsp3 1564–1878); assay: biochemical; set-up: FRET-quenched peptide (Pro3) cleavage by PLpro, 10 min pre-incubation, slope over 20 min, normalised to no-compound control; conditions: high concentration screen, read-out: % of control remaining

O=C1NC(=O)c2c1c1c3ccccc3n3c1c1c2c2ccccc2n1C1CCC3O1 [9,10,11,12-Tetrahydro-9,12-epoxy-1H-diindolo[1,2,3-fg:3',2',1'-kl]pyrrolo[3,4-i][1,6]benzodiazocine-1,3(2H)-dione]
remaining activity at 1.25 µM ([1]; Well no.=2578): 99% | remaining activity at 3.75 µM ([2]; Well no.=2578): 101%

NNC(N)=O [Semicarbazide hydrochloride]
remaining activity at 1.25 µM ([1]; Well no.=1406): 99.7% | remaining activity at 3.75 µM ([2]; Well no.=1406): 99.4%

NN=C(N)N [Aminoguanidine hemisulfate]
remaining activity at 1.25 µM ([1]; Well no.=213): 95.8% | remaining activity at 3.75 µM ([2]; Well no.=213): 96.8%

CNC(=O)c1ccccc1Oc1nc(Nc2cc(OC)c(OC)c(OC)c2)ncc1Br [SBI-0206965]
remaining activity at 1.25 µM ([1]; Well no.=7028): 105% | remaining activity at 3.75 µM ([2]; Well no.=7028): 103%

N#Cc1ccc2[nH]cc(CCCCN3CCN(c4ccc5oc(C(N)=O)cc5c4)CC3)c2c1 [Vilazodone]
remaining activity at 1.25 µM ([1]; Well no.=6477): 90.6% | remaining activity at 3.75 µM ([2]; Well no.=6477): 89.2%

CCCCC/C=C\C\C=C/C=C/C=C/[C@@H](SC[C@H](N)C(=O)O)[C@@H](O)CCCC(=O)O [Leukotriene E4]
remaining activity at 1.25 µM ([1]; Well no.=4433): 99.2% | remaining activity at 3.75 µM ([2]; Well no.=4433): 99.5%

O=C(O)CCCCCC(=O)O [Pimelic acid]
remaining activity at 1.25 µM ([1]; Well no.=7115): 96.9% | remaining activity at 3.75 µM ([2]; Well no.=7115): 99.2%

C[C@H]1[C@H](C)CC[C@]2(C(=O)O)CC[C@]3(C)C(=CC[C@@H]4[C@@]5(C)C[C@@H](O)[C@H](O)[C@@](C)(CO)[C@@H]5CC[C@]43C)[C@H]12 [Asiatic acid]
remaining activity at 1.25 µM ([1]; Well no.=3509): 100% | remaining activity at 3.75 µM ([2]; Well no.=3509): 103%

NS(=O)(=O)c1cc2c(cc1Cl)N=C(CSCc1ccccc1)NS2(=O)=O [Benzthiazide]
remaining activity at 1.25 µM ([1]; Well no.=8586): 98.4% | remaining activity at 3.75 µM ([2]; Well no.=8586): 93.6%

O=c1ccn([C@@H]2O[C@H](CO)[C@@H](O)[C@@H]2O)c(=O)[nH]1 [1-_beta-_D-_Arabinofuranosylurac_il]
remaining activity at 1.25 µM ([1]; Well no.=8887): 95.2% | remaining activity at 3.75 µM ([2]; Well no.=8887): 94.3%

CN(C)CCC(c1ccc(Cl)cc1)c1ccccn1 (centres unmarked) [Chlorpheniramine (maleate)]
remaining activity at 1.25 µM ([1]; Well no.=7525): 103% | remaining activity at 3.75 µM ([2]; Well no.=7525): 101%

CCOc1ccc(NC(C)=O)cc1 [Phenacetin]
remaining activity at 1.25 µM ([1]; Well no.=4948): 98.7% | remaining activity at 3.75 µM ([2]; Well no.=4948): 93.7%

Cc1o[nH]c(=O)c1CC(N)C(=O)O (racemic)
remaining activity at 1.25 µM ([1]; Well no.=508): 99.4% | remaining activity at 3.75 µM ([2]; Well no.=508): 100%

N=C(N)c1ccc(OCCCCCOc2ccc(C(=N)N)cc2)cc1 [Pentamidine HCl]
remaining activity at 1.25 µM ([1]; Well no.=4648): 98.3% | remaining activity at 3.75 µM ([2]; Well no.=4648): 98.1%

Cc1ccccc1C(=O)NCC(=O)O [2-(2-Methylbenzamido)acetic acid]
remaining activity at 1.25 µM ([1]; Well no.=6725): 103% | remaining activity at 3.75 µM ([2]; Well no.=6725): 104%

COc1ccc(C(CN(C)C)C2(O)CCCCC2)cc1 (centres unmarked) [Venlafaxine]
remaining activity at 1.25 µM ([1]; Well no.=2044): 100% | remaining activity at 3.75 µM ([2]; Well no.=2044): 99.4%

CCn1c(=O)[nH]c2cc(Cl)c(Cl)cc21 [DCEBIO]
remaining activity at 1.25 µM ([1]; Well no.=538): 102% | remaining activity at 3.75 µM ([2]; Well no.=538): 104%

N=C(N)c1ccc(OCCCCCOc2ccc(C(=N)N)cc2)cc1 [Pentamidine isethionate]
remaining activity at 1.25 µM ([1]; Well no.=996): 101% | remaining activity at 3.75 µM ([2]; Well no.=996): 101%

Clc1ccccc1CN1CCc2sccc2C1 [Ticlopidine (hydrochloride)]
remaining activity at 1.25 µM ([1]; Well no.=6270): 107% | remaining activity at 1.25 µM ([1]; Well no.=8213): 108% | remaining activity at 3.75 µM ([2]; Well no.=6270): 109% | remaining activity at 3.75 µM ([2]; Well no.=8213): 100%

O=C1N=C(O)NC1(c1ccccc1)c1ccccc1 [Phenytoin sodium]
remaining activity at 1.25 µM ([1]; Well no.=403): 104% | remaining activity at 3.75 µM ([2]; Well no.=403): 104%

CCCCCCCCCCCCC(=O)N1CCCCC1CNC(=O)[C@@H](N)CCCCN (some centres unmarked) [NPC-15437 dihydrochloride]
remaining activity at 1.25 µM ([1]; Well no.=1132): 94% | remaining activity at 3.75 µM ([2]; Well no.=1132): 95.6%

Cc1cc(C(C)(C)C)c(O)c(C)c1CC1=NCCN1 [Oxymetazoline (hydrochloride)]
remaining activity at 1.25 µM ([1]; Well no.=7327): 102% | remaining activity at 3.75 µM ([2]; Well no.=7327): 99.6%

O=C(O)CC[C@H](NC(=O)N[C@@H](CCCCNC(=O)[C@H](Cc1ccc2ccccc2c1)NC(=O)[C@H]1CC[C@H](CNC(=O)CN2CCN(CC(=O)O)CCN(CC(=O)O)CCN(CC(=O)O)CC2)CC1)C(=O)O)C(=O)O [Vipivotide tetraxetan]
remaining activity at 1.25 µM ([1]; Well no.=7834): 103% | remaining activity at 3.75 µM ([2]; Well no.=7834): 104%

Nc1nc(N)c2nc(CNc3ccc(C(=O)N[C@@H](CCC(=O)O)C(=O)O)cc3)cnc2n1 [Aminopterin]
remaining activity at 1.25 µM ([1]; Well no.=153): 101% | remaining activity at 3.75 µM ([2]; Well no.=153): 104%

CN1CCC(c2c[nH]c3ccc(O)cc23)CC1 [BRL 54443]
remaining activity at 1.25 µM ([1]; Well no.=5171): 98% | remaining activity at 1.25 µM ([1]; Well no.=6945): 103% | remaining activity at 3.75 µM ([2]; Well no.=5171): 89.8% | remaining activity at 3.75 µM ([2]; Well no.=6945): 93.5%

CCCCC/C=C\C/C=C\C/C=C\CCCCC(=O)O [γ-Linolenic acid (18:3 n-6)]
remaining activity at 1.25 µM ([1]; Well no.=4307): 95% | remaining activity at 3.75 µM ([2]; Well no.=4307): 100%

C#C[C@]1(O)CC[C@H]2[C@@H]3CCc4cc(O)ccc4[C@H]3CC[C@@]21C [Ethinyl Estradiol]
remaining activity at 1.25 µM ([1]; Well no.=5333): 98.9% | remaining activity at 3.75 µM ([2]; Well no.=5333): 98.6%

CCN(CC)CCNC(=O)c1cc(Cl)c(N)cc1OC [Metoclopramide]
remaining activity at 1.25 µM ([1]; Well no.=1696): 101% | remaining activity at 1.25 µM ([1]; Well no.=6425): 99.2% | remaining activity at 3.75 µM ([2]; Well no.=1696): 102% | remaining activity at 3.75 µM ([2]; Well no.=6425): 95%

CC1=C[C@]23C(=O)[C@@H](C=C(COC(=O)c4ccccc4)[C@@H](O)[C@]2(O)[C@H]1OC(=O)c1ccccc1)[C@H]1[C@@H](C[C@H]3C)C1(C)C [Ingenol 3,20-dibenzoate]
remaining activity at 1.25 µM ([1]; Well no.=3363): 95% | remaining activity at 3.75 µM ([2]; Well no.=3363): 97.2%

O=c1ccn([C@@H]2O[C@H](COP(=O)(O)OP(=O)(O)O)[C@@H](O)[C@H]2O)c(=O)[nH]1 [Uridine 5'-diphosphate sodium]
remaining activity at 1.25 µM ([1]; Well no.=1188): 104% | remaining activity at 3.75 µM ([2]; Well no.=1188): 104%

C[C@@H]1O[C@@H](O[C@H]2[C@H](Oc3cc(O)c4c(=O)cc(-c5ccc(O)cc5)oc4c3)O[C@H](CO)[C@@H](O)[C@@H]2O)[C@H](O)[C@H](O)[C@H]1O [Rhoifolin]
remaining activity at 1.25 µM ([1]; Well no.=3733): 95.5% | remaining activity at 3.75 µM ([2]; Well no.=3733): 98.5%

COC1=C(OC)C(=O)C(CCCCCCCCCCO)=C(C)C1=O [Idebenone]
remaining activity at 1.25 µM ([1]; Well no.=1616): 103% | remaining activity at 1.25 µM ([1]; Well no.=3859): 104% | remaining activity at 3.75 µM ([2]; Well no.=1616): 99.2% | remaining activity at 3.75 µM ([2]; Well no.=3859): 105%

CCCCOc1ccc(C(=O)CCN2CCCCC2)cc1 [Dyclonine (hydrochloride)]
remaining activity at 1.25 µM ([1]; Well no.=8318): 95.9% | remaining activity at 3.75 µM ([2]; Well no.=8318): 94.4%
